System: GammaD12
Conditions: IC50 concentration, 24 h, vs vehicle
Experimental: According to instructions, Caspase-Glo® 3/7 assay (Promega GmbH, Mannheim, Germany) was used for monitoring caspase activity. Briefly, the same volume Caspase-Glo reagent as culture medium was added and incubated 1 h at room temperature. Luminescence was read with a Victor3 Wallac 1420 Multilabel counter (PerkinElmer, Rodgau, Germany). Background absorbance (medium only) was subtracted and the data given as percent of vehicle controls.

Fc1ccccc1CNc1ncnc2c1cnn2CC(Cl)c1ccc(Br)cc1 (stereo not shown) [Si162]
Increase in caspase-3/7 activity: up to 3 fold
